In US8809627B2, “Plant isoflavone and isoflavanone O-methyltransferase genes” (The Samuel Roberts Noble Foundation, Inc., priority 2006, dated 2014):
Where no end group is shown, it is not given here.

Legend:
[1] = Specific activity of the purified IOMTs with the most converted substrate; type: biochemical; conditions: 50 μM S-adenosyl methionine, 100 μM acceptor substrate
Procedure: (§1) For determination of specific activities, reactions (100 μl) were performed in 0.1 M potassium phosphate, pH 7.4, 10% (w/v) sucrose, 14 mM β-mercaptoethanol with 0.2-μg protein, 50 μM S-adenosyl-L-methionine (0.025 μCi ^14C-SAM per reaction), and 100 μM substrate. Reactions were incubated at 30° C. for 15-25 min and stopped by addition of 4 μl of 1N HCl. Products were extracted into 500 μl of ethyl acetate and 400 μl was used for liquid scintillation counting.

[2] = Quantification of methylated products in reactions with dihydrodaidzein; type: biochemical
Procedure: (§2) Reactions (200 μl) were performed in 0.1 M potassium phosphate, pH 7.4, 10% (w/v) sucrose, 14 mM β-mercaptoethanol with 10 μM protein, 0.5 mM S-adenosyl-L-methionine, and 80 μM phenolic substrates. All substrates were purchased from Indofine (Hillsborough, N.J.) except 6,7-dihydroxy-4′-methoxyisoflavone, dihydrodaidzein, and vestitol, which were purchased from Apin (Oxfordshire, UK). […] OMT assays were incubated at 30° C. for 2 h and extracted with ethyl acetate. Ethyl acetate extracts were dried under N2 and the resultant material was resuspended in 50-100 μl of methanol. Samples were analyzed on an Agilent 1100 HPLC, equipped with a quaternary pump (model #G1311A), a degasser (model #G1322A), an autosampler (model #G1313A), and a diode array detector (model #G1315A). Samples of 20 μl were applied to an ODS2 reverse-phase column (5 μm particle size, 4.6×250 mm) and eluted in 1% (v/v) phosphoric acid with an increasing gradient of acetonitrile (0-5 min, 25%; 5-35 min, 25-50%; 35-39 min, 50-100%) at a flow rate of 1 ml/min. To resolve the 4′-O-methylated and 7-O-methylated products of genistein, samples were applied to a Phenomenex SYNERGI Polar-RP 80 Å column (4 μm particle size, 4.6×250 mm) and eluted in water with an increasing gradient of acetonitrile (0-5 min, 20%; 5-17 min, 20-38%; 17-33 min, 38%; 33-45 min, 38-56%; 45-46 min, 56-100%) at a flow rate of 1 ml/min. Chiral chromatography was performed as described (Liu et al., 2005).
An HP 1100 series II LC system (Hewlett-Packard, Palo Alto, Calif.) with a photodiode array detector was coupled to a Bruker Esquire ion-trap mass spectrometer (ITMS) equipped with an electrospray ionization source. A reverse phase, C18, 5 μm, 4.6×250 mm column (J. T. Baker, Phillipsburg, N.J.) was used for separations. The mobile phase consisted of 0.1% (v/v) acetic acid using linear gradients of 5-90% acetonitrile (v/v) in 70 min. The flow rate was 0.8 ml/min, and the temperature of the column was kept at 28° C. Both positive- and negative-ion mass spectra were acquired. Positive-ion ESI was performed using an ion source voltage of 4.0 KV and a capillary offset voltage of 86.0 V. Nebulization was aided with a coaxial nitrogen sheath gas provided at a pressure of 60 psi. Desolvation was aided using a counter current nitrogen flow set at a pressure of 12 psi and a capillary temperature of 300° C. Mass spectra were recorded over the range 50-2200 m/z. The ITMS was operated under an ion current control of approximately 10,000 with a maximum acquire time of 100 ms. Tandem mass spectra were obtained in manual mode for targeted masses using an isolation width of 2.0, fragmentation amplitude of 2.2 and threshold set at 6,000.
To determine the regio-specificity of methylation, reaction products were subjected to HPLC separation and identified by comparison to available standards, or subjected to tandem MS analysis (FIGS. 10-13; Table 4)

MtIOMT5 = target: T1, MtIOMT5 (Medicago truncatula, UniProt Q29U70); experiment: OMT assays with purified recombinant MtIOMT5 (relative activity; HPLC/MS of products); type: biochemical; conditions: for Position of methylation / reaction products, MtIOMT5: HPLC against standards, tandem MS
T1 construct: His-tag (N); made in house; host or cells: E. coli BL21(DE3)
T1 sequence (Q29U70 1-364): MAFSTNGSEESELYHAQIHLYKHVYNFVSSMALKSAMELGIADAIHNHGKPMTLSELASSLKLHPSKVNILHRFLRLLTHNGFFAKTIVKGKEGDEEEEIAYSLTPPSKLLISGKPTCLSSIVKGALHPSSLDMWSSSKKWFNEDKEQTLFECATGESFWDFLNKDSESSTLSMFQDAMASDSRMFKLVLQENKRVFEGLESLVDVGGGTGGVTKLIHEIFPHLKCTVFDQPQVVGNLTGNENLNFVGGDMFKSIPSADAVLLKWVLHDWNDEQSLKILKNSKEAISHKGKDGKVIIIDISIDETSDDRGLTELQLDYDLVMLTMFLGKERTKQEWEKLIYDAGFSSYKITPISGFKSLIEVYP
Description: (§3) Cloning of MtIOMT5 (corresponding to TC 100926, TIGR MtGI v.8) was as described previously (Liu et al., 2005). To obtain a full-length cDNA for MtIOMT2, specific primers designed based upon the M. truncatula genomic sequence were used to amplify the MtIOMT2 coding sequence from M. truncatula root cDNA. The amplified product was cloned into the pGEM®-T easy vector (Promega, Madison Wis.) and sequenced to confirm its identity. MtIOMTs were cloned into the pET28a vector (EMD Biosciences, Inc., San Diego, Calif.) using PCR-based amplification with primers designed to introduce EcoRI and XhoI restriction sites; BamHI and XhoI sites were used for cloning MtIOMT6 due to the presence of an internal EcoRI site in this particular cDNA. Because the EST for MtIOMT8 was missing a start codon, the primer designed to clone MtIOMT8 into pET28a contained an additional 2-nucleotide insertion to generate an ATG start site. All MtIOMTs were expressed as translational fusions to an N-terminal His-tag. Expression of MtIOMTs in E. coli BL21(DE3) and purification by Ni^2+-NTA chromatography were as described (Zubieta et al., 2001). Proteins were dialyzed against 20 mM Tris pH 8.0, 100 mM NaCl, 10% (v/v) glycerol, and 14 mM β-mercaptoethanol. Protein concentration was determined by Bradford assay using BSA as a standard (Bradford, 1976).
as §2, §1
An HP 1100 series II LC system (Hewlett-Packard, Palo Alto, Calif.) with a photodiode array detector was coupled to a Bruker Esquire ion-trap mass spectrometer (ITMS) equipped with an electrospray ionization source. A reverse phase, C18, 5 μm, 4.6×250 mm column (J. T. Baker, Phillipsburg, N.J.) was used for separations. The mobile phase consisted of 0.1% (v/v) acetic acid using linear gradients of 5-90% acetonitrile (v/v) in 70 min. The flow rate was 0.8 ml/min, and the temperature of the column was kept at 28° C. Both positive- and negative-ion mass spectra were acquired. […]

MtIOMT7 = experiment: OMT assays with purified recombinant MtIOMT7 (relative activity; HPLC/MS of products); type: biochemical, Medicago truncatula; conditions: 50 μM S-adenosyl methionine, 100 μM acceptor substrate; most converted substrate = 100%
Description: as §3, §2, §1
An HP 1100 series II LC system (Hewlett-Packard, Palo Alto, Calif.) with a photodiode array detector was coupled to a Bruker Esquire ion-trap mass spectrometer (ITMS) equipped with an electrospray ionization source. A reverse phase, C18, 5 μm, 4.6×250 mm column (J. T. Baker, Phillipsburg, N.J.) was used for separations. The mobile phase consisted of 0.1% (v/v) acetic acid using linear gradients of 5-90% acetonitrile (v/v) in 70 min. The flow rate was 0.8 ml/min, and the temperature of the column was kept at 28° C. Both positive- and negative-ion mass spectra were acquired.

MsI7OMT = target: T2, MsI7OMT (Medicago sativa, UniProt O24529); conditions: reported by He et al., 1998; cited from earlier work
T2 sequence (O24529 1-352): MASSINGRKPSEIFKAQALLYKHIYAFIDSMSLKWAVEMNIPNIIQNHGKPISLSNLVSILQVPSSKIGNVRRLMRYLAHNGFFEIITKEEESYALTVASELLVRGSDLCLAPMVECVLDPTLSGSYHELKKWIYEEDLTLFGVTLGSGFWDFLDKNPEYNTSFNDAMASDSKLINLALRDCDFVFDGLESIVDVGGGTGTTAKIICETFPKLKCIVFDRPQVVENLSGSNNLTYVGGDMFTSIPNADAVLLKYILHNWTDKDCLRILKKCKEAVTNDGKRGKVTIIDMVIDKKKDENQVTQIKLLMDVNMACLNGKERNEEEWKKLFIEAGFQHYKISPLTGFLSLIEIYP

Molecule	Specific activity at 100% [1]	% 4′-Methylated [2]	% 7-Methylated [2]	% Dimethylated [2]	Ratio 4′/7-methylated [2]	Relative activity, MtIOMT5 (MtIOMT5; 50 μM S-adenosyl methionine, 100 μM acceptor substrate, most converted substrate = 100%)	Position of methylation / reaction products, MtIOMT5 (MtIOMT5)	Relative activity, MtIOMT7 (MtIOMT7)	Activity of MsI7OMT with 4′-methoxyisoflavones (in words) (MsI7OMT)	Enantiomer methylated, MtIOMT5 (MtIOMT5; chiral HPLC of unreacted substrate)
MtIOMT1: M. truncatula isoflavonoid O-methyltransferase, His-tagged, expressed in E. coli; GenBank AY942159 (TYVGGDMFTSIPNADAVLLKYILHNWTDKDCTRILKKCKE; cysteine pairing not given here; also: His-tagged; listed as Medicago truncatula)	3646.7 pkat/mg	0%	>99%	<1%	0	–	–	–	–	–
MtIOMT2: M. truncatula isoflavonoid O-methyltransferase, His-tagged, expressed in E. coli; GenBank DQ419910 (NFVGGDMFKSVPSADAVLLKWVLHDWNDELCLKILKNCKE; His tag; listed as Medicago truncatula)	930.2 pkat/mg	33%	66%	<1%	0.5	–	–	–	–	–
O=C1c2ccc(O)cc2OC(O)C1c1ccc(O)cc1 (stereo not drawn) [2,7,4′-trihydroxyisoflavanone]	–	–	–	–	–	100%	exclusively methylated on the 4′-position	24.8%	–	–
COc1ccc(-c2coc3cc(O)cc(O)c3c2=O)cc1 [biochanin A]	–	–	–	–	–	–	–	–	little activity	–
O=C1C[C@@H](c2ccc(O)cc2)Oc2cc(O)ccc21 [Liquiritigenin]	–	–	–	–	–	–	methylated on the 4′-positions	–	–	preferentially methylates the (2R)-enantiomer
MtIOMT3: M. truncatula isoflavonoid O-methyltransferase, His-tagged, expressed in E. coli; GenBank DQ419911 (TYVGGDMFISVPKADAVLLKAVLHDWTDKDCIKILKKCKE; cysteine pairing not given here; also: His-tagged; listed as Medicago truncatula)	7.4 pkat/mg	92%	8%	0%	11.4	–	–	–	–	–
